Experimental data taken from patent publication US8486931B2, “Substituted oxindole compounds” (Abbott GmbH & Co. KG, priority 2007, dated 2013).
pKi: −log10 of the molar value. Counter-ions that a name gives are not always drawn.

Molecular target: T1, human vasopressin V1b receptor (Homo sapiens, UniProt P47901)
T1 construct: expressed in transfected cells; host or cells: CHO-K1 (cell line hV1b-3H2_CHO), membrane preparation
T1 sequence (P47901 1-424): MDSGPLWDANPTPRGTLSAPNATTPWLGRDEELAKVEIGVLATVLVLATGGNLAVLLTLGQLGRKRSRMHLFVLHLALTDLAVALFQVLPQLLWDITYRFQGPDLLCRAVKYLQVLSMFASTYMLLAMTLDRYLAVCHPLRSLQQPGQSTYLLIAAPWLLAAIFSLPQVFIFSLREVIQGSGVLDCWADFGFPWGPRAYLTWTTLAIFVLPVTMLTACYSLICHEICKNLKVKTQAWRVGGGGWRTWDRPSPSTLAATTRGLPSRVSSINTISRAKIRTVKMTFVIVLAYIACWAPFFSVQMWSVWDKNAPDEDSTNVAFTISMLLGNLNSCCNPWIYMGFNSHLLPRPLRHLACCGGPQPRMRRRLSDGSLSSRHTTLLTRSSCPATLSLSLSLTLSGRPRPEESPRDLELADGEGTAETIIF
Assay: Vasopressin V1b receptor binding assay
Settings: membranes from CHO-K1 cells with stably expressed human V1b receptors, 1.5 nM 3H-AVP displacement; with more than one stereogenic center: the diastereomer with stronger affinity
Summary of the method: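 Membranes bearing human V1b receptor incubated 60 min at room temperature in 50 mM Tris, 10 mM MgCl2, 0.1% BSA, pH 7.4, 2% DMSO, triplicate.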

Row | Compound | pKi
1 | CCOc1cc(F)ccc1C1(N2CCN(c3ccncc3)CC2)C(=O)N(S(=O)(=O)c2ccc(C)cn2)c2ccc(C#N)cc21 (racemic) [Example 49, (±)-5-Cyano-3-(2-ethoxy-4-fluorophenyl)-1-(5-methylpyridine-2-sulfonyl)-3-(4-pyridin-4-ylpiperazin-1-yl)-2,3-dihydro-1H-indol-2-one] | 7.30 to 8.00
2 | CCOc1ccc(OC)cc1C1(N2CCN(c3ccnc(C)c3)CC2)C(=O)N(S(=O)(=O)c2cccc3c(C)ccnc23)c2ccc(C#N)cc21 (racemic) [Example 18, (±)-5-Cyano-3-(2-ethoxy-5-methoxyphenyl)-3-[4-(2-methylpyridin-4-yl)piperazin-1-yl]-1-(4-methylquinoline-8-sulfonyl)-2,3-dihydro-1H-indol-2-one] | > 8.00
3 | CCOc1nc(Cl)ccc1C1(N2CCN(c3ccncc3)CC2)C(=O)N(S(=O)(=O)c2cccc3cccnc23)c2ccc(C#N)cc21 (racemic) [Example 24, (±)-5-Cyano-3-(6-chloro-2-ethoxypyridin-3-yl)-3-(4-pyridin-4-ylpiperazin-1-yl)-1-(quinoline-8-sulfonyl)-2,3-dihydro-1H-indol-2-one] | > 8.00
4 | COc1ncccc1C1(N2CCN(c3ccncc3)CC2)C(=O)N(S(=O)(=O)c2cccc3cccnc23)c2ccc(C#N)cc21 (racemic) [Example 4, (±)-5-Cyano-3-(2-methoxypyridin-3-yl)-3-(4-pyridin-4-ylpiperazin-1-yl)-1-(quinoline-8-sulfonyl)-2,3-dihydro-1H-indol-2-one] | 7.30 to 8.00
5 | CCOc1ncccc1C1(N2CCN(c3ccncc3)CC2)C(=O)N(S(=O)(=O)c2cccc3cccnc23)c2ccc(C#N)cc21 (racemic) [Example 5, (±)-5-Cyano-3-(2-ethoxypyridin-3-yl)-3-(4-pyridin-4-ylpiperazin-1-yl)-1-(quinoline-8-sulfonyl)-2,3-dihydro-1H-indol-2-one] | > 8.00
6 | CCOc1ccc(OC)cc1C1(N2CCN(C3CCNCC3)CC2)C(=O)N(S(=O)(=O)c2ccc(OC)c3cccnc23)c2ccc(C#N)cc21 (racemic) [Example 69, (±)-5-Cyano-3-(2-ethoxy-5-methoxyphenyl)-1-(5-methoxyquinoline-8-sulfonyl)-3-(4-piperidin-4-ylpiperazin-1-yl)-2,3-dihydro-1H-indol-2-one hydrochloride] | 7.30 to 8.00
7 | CCOc1ccc(OC)cc1C1(N2CCCN(c3ccnc(C)c3)CC2)C(=O)N(S(=O)(=O)c2ccc(OC)cn2)c2ccc(C#N)cc21 (racemic) [Example 65, (±)-5-Cyano-3-(2-ethoxy-5-methoxyphenyl)-1-(5-methoxypyridine-2-sulfonyl)-3-[4-(2-methylpyridin-4-yl)-[1,4]diazepan-1-yl]-2,3-dihydro-1H-indol-2-one] | > 8.00
8 | O=C1N(S(=O)(=O)c2cccc3cccnc23)c2ccc(Cl)cc2C1(c1ccccn1)N1CCN(c2ccncc2)CC1 (racemic) [Example 8, (±)-5-Chloro-3-pyridin-2-yl-3-(4-pyridin-4-ylpiperazin-1-yl)-1-(quinoline-8-sulfonyl)-1,3-dihydroindol-2-one] | 7.30 to 8.00
9 | CCOc1ccccc1C1(N2CCN(c3ccnc(CC)c3)CC2)C(=O)N(S(=O)(=O)c2cccc3cccnc23)c2ccc(C#N)cc21 (racemic) [Example 56, (±)-5-Cyano-3-(2-ethoxyphenyl)-3-[4-(2-ethylpyridin-4-yl)piperazin-1-yl]-1-(quinoline-8-sulfonyl)-2,3-dihydro-1H-indol-2-one] | 7.30 to 8.00
10 | CCOc1nc(Cl)ccc1C1(N2CCN(c3ccnc(C)c3)CC2)C(=O)N(S(=O)(=O)c2ccc(OC)cn2)c2ccc(C#N)cc21 (single isomer, unassigned; (+)) [Example 151, (+)-5-Cyano-3-(6-chloro-2-ethoxy-pyridin-3-yl)-1-(5-methoxy-pyridine-2-sulfonyl)-3-[4-(2-methyl-pyridin-4-yl)-piperazin-1-yl]-2,3-dihydro-1H-indol-2-one] | > 8.00
11 | CCOc1ccccc1C1(N2CCN(c3ccncc3)CC2C)C(=O)N(S(=O)(=O)c2cccc3cccnc23)c2ccc(C#N)cc21 (racemic) [Example 6, (±)-5-Cyano-3-(2-ethoxyphenyl)-3-(2-methyl-4-pyridin-4-ylpiperazin-1-yl)-1-(quinoline-8-sulfonyl)-2,3-dihydro-1H-indol-2-one] | > 8.00
12 | CCOc1ccc(OC)cc1C1(N2CCN(c3ccnc(C)c3)CC2)C(=O)N(S(=O)(=O)c2ccc(OC)cn2)c2ccc(C#N)cc21 (single isomer, unassigned; (+)) [Example 164, (+)-5-Cyano-3-(2-ethoxy-5-methoxy-phenyl)-1-(5-methoxy-pyridine-2-sulfonyl)-3-[4-(2-methyl-pyridin-4-yl)-piperazin-l-yl]-2,3-dihydro-1H-indol-2-one] | > 8.00
13 | CCOc1ccc(OC)cc1C1(N2CCN(C3CCN(C)CC3)CC2)C(=O)N(S(=O)(=O)c2ccc(OC)c3cccnc23)c2ccc(C#N)cc21 (racemic) [Example 161, (±)-5-Cyano-3-(2-ethoxy-5-methoxy-phenyl)-1-(5-methoxy-quinoline-8-sulfonyl)-3-[4-(1-methyl-piperidin-4-yl)-piperazin-1-yl]-2,3-dihydro-1H-indol-2-one] | > 8.00
14 | CCOc1cc(OC)ccc1C1(N2CCN(c3ccnc(C)c3)CC2)C(=O)N(S(=O)(=O)c2ccc(OC)cn2)c2ccc(C#N)cc21 (racemic) [Example 178, (±)-5-Cyano-3-(2-ethoxy-4-methoxy-phenyl)-1-(5-methoxy-pyridine-2-sulfonyl)-3-[4-(2-methyl-pyridin-4-yl)-piperazin-1-yl]-2,3-dihydro-1H-indol-2-one] | 7.30 to 8.00
15 | COc1ccc(OC(C)C)c(C2(N3CCN(c4ccncc4)CC3)C(=O)N(S(=O)(=O)c3ccc(C)cn3)c3ccc(C#N)cc32)c1 (racemic) [Example 21, (±)-5-Cyano-3-(2-isopropoxy-5-methoxyphenyl)-1-(5-methylpyridine-2-sulfonyl)-3-(4-pyridin-4-ylpiperazin-1-yl)-2,3-dihydro-1H-indol-2-one] | 7.30 to 8.00
16 | COc1ccc(OC)c(C2(N3CCN(c4ccncc4)CC3)C(=O)N(S(=O)(=O)c3cccc4c(C)ccnc34)c3ccc(C#N)cc32)c1 (racemic) [Example 50, (±)-5-Cyano-3-(2,5-dimethoxyphenyl)-1-(4-methylquinoline-8-sulfonyl)-3-(4-pyridin-4-yl-piperazin-1-yl)-2,3-dihydro-1H-indol-2-one] | 7.30 to 8.00
17 | CCOc1ccccc1C1(N2CCN(c3ccncc3)CC2)C(=O)N(S(=O)(=O)c2ccccn2)c2ccc(C#N)cc21 (racemic) [Example 14, (±)-5-Cyano-3-(2-ethoxyphenyl)-1-(pyridine-2-sulfonyl)-3-(4-pyridin-4-yl-piperazin-1-yl)-2,3-dihydro-1H-indol-2-one] | 7.30 to 8.00
18 | CCOc1ccc(OC)cc1C1(N2CCC(N3CCNCC3)CC2)C(=O)N(S(=O)(=O)c2ccc(OC)c3cccnc23)c2ccc(C#N)cc21 (racemic) [Example 87, (±)-5-Cyano-3-(2-ethoxy-5-methoxyphenyl)-1-(5-methoxyquinoline-8-sulfonyl)-3-(4-piperazin-1-ylpiperidin-1-yl)-2,3-dihydro-1H-indol-2-one hydrochloride] | > 8.00
19 | CCOc1nc(Cl)ccc1C1(N2CC3CC2CN3c2ccncc2)C(=O)N(S(=O)(=O)c2ccc(OC)cn2)c2ccc(C#N)cc21 (racemic) [Example 155, (±)-5-Cyano-3-(6-chloro-2-ethoxy-pyridin-3-yl)-1-(5-methoxy-pyridine-2-sulfonyl)-3-((1S,4S)-5-pyridin-4-yl-2,5-diaza-bicyclo[2.2.1]hept-2-yl)-2,3-dihydro-1-2-one] | 7.30 to 8.00
20 | CCOc1cc(OC)ccc1C1(N2CCC(N3CCNCC3)CC2)C(=O)N(S(=O)(=O)c2ccc(OC)cn2)c2ccc(C#N)cc21 (single isomer, unassigned; (+)) [Example 142, (+)-5-Cyano-3-(2-ethoxy-4-methoxy-phenyl)-1-(5-methoxy-pyridine-2-sulfonyl)-3-(4-piperazin-1-yl-piperidin-1-yl)-2,3-dihydro-1H-indol-2-one] | > 8.00
21 | CCOc1ccc(OC)cc1C1(N2CCC(N3CCNCC3)CC2)C(=O)N(S(=O)(=O)c2ccc(OC)cn2)c2ccc(C#N)cc21 (single isomer, unassigned; (+)) [Example 156, (+)-5-Cyano-3-(2-ethoxy-5-methoxy-phenyl)-1-(5-methoxy-pyridine-2-sulfonyl)-3-(4-piperazin-1-yl-piperidin-1-yl)-2,3-dihydro-1H-indol-2-one] | 7.30 to 8.00
22 | CCOc1ccccc1C1(N2CCN(c3ccncc3)CC2)C(=O)N(S(=O)(=O)c2cccc3c(C)ccnc23)c2ccc(C#N)cc21 (single isomer, unassigned; (+)) [Example 63, (+)-5-Cyano-3-(2-ethoxyphenyl)-1-(4-methylquinoline-8-sulfonyl)-3-(4-pyridin-4-yl-piperazin-1-yl)-2,3-dihydro-1H-indol-2-one] | > 8.00
23 | (±)-5-Cyano-3-(2-ethoxy-5-methoxyphenyl)-3-[4-(2-ethylpyridin-4-yl)piperazin-1-yl]-1-(quinoline-8-sulfonyl)-2,3-dihydro-1H-indol-2-one [Example 58] | > 8.00
24 | Cc1cccnc1C1(N2CCN(c3ccncc3)CC2)C(=O)N(S(=O)(=O)c2cccc3cccnc23)c2ccc(Cl)cc21 (racemic) [Example 9, (±)-5-Chloro-3-(3-methylpyridin-2-yl)-3-(4-pyridin-4-ylpiperazin-1-yl)-1-(quinoline-8-sulfonyl)-1,3-dihydroindol-2-one] | 7.30 to 8.00
